This note sets out measurements from US20250170248A1, “SMARCA DEGRADERS AND USES THEREOF” (Kymera Therapeutics, Inc., priority 2021, published 2025).

Format in all cases: cell-based
Experiment [1] concerns the target T1, SMARCA2 (Homo sapiens, UniProt P51531). Briefly: MSD SMARCA2 degradation in A549 cell line. The settings on record: 24 h; for Dmax: A549, A549 cells; for DC50: A549 cells, read-out: SMARCA2 MSD A549 degradation 24 h: Average external-Abs DC50. In a few lines:
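SMARCA2 protein remaining after 24 h exposure of A549 cells (top concentration 1000 nM, 3-fold dilutions) was measured by MSD electrochemiluminescence immunoassay of cell lysates. Results are given as binned DC50 and maximal degradation (Dmax) codes.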

Experiment [2] has as its target T2, SMARCA4 (Homo sapiens, UniProt P51532).
T2 construct: SMARCA2/SMARCA4 protein degradation selectivity in MV4-11 cells; endogenous in cells; host or cells: MV4-11
Briefly: SMARCA4 Western blot degradation in MV4-11 cells. Conditions: 24 h; for Dmax: MV4-11, MV4-11 cells, read-out: SMARCA4 MSD MV411 degradation 24 h: average Dmax %; for DC50: MV4-11 cells, read-out: SMARCA4 MSD MV411 degradation 24 h: Mean external-Abs DC50. Put shortly:
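Fluorescent LI-COR imaging of Western blots quantified SMARCA2 and SMARCA4 protein remaining in MV4-11 cells after 24 h of compound treatment. β-actin was the loading control, and DC50, Dmax and SMARCA2/4 selectivity are given as letter-coded ranges.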
Background: A western blot detects proteins with antibodies after separation by electrophoresis.

For experiment [3], the target named is T1, SMARCA2. The experiment can be described thus: SMARCA2 Western blot degradation in MV4-11 cells. Details: SMARCA2/SMARCA4 protein degradation selectivity in MV4-11 cells; endogenous in cells; host or cells: MV4-11. The settings on record: for Dmax: MV4-11, MV4-11 cells, read-out: SMARCA2 MSD MV411 degradation 24 h: average Dmax %; for Dmax / DC50: 24 h; for DC50 / Selectivity in MV411: MV4-11 cells; for DC50: read-out: SMARCA2 MSD MV411 degradation 24 h: Mean external-Abs DC50; for Selectivity in MV411: SMARCA2/4 selectivity.

T1 sequence (P51531 whole entry): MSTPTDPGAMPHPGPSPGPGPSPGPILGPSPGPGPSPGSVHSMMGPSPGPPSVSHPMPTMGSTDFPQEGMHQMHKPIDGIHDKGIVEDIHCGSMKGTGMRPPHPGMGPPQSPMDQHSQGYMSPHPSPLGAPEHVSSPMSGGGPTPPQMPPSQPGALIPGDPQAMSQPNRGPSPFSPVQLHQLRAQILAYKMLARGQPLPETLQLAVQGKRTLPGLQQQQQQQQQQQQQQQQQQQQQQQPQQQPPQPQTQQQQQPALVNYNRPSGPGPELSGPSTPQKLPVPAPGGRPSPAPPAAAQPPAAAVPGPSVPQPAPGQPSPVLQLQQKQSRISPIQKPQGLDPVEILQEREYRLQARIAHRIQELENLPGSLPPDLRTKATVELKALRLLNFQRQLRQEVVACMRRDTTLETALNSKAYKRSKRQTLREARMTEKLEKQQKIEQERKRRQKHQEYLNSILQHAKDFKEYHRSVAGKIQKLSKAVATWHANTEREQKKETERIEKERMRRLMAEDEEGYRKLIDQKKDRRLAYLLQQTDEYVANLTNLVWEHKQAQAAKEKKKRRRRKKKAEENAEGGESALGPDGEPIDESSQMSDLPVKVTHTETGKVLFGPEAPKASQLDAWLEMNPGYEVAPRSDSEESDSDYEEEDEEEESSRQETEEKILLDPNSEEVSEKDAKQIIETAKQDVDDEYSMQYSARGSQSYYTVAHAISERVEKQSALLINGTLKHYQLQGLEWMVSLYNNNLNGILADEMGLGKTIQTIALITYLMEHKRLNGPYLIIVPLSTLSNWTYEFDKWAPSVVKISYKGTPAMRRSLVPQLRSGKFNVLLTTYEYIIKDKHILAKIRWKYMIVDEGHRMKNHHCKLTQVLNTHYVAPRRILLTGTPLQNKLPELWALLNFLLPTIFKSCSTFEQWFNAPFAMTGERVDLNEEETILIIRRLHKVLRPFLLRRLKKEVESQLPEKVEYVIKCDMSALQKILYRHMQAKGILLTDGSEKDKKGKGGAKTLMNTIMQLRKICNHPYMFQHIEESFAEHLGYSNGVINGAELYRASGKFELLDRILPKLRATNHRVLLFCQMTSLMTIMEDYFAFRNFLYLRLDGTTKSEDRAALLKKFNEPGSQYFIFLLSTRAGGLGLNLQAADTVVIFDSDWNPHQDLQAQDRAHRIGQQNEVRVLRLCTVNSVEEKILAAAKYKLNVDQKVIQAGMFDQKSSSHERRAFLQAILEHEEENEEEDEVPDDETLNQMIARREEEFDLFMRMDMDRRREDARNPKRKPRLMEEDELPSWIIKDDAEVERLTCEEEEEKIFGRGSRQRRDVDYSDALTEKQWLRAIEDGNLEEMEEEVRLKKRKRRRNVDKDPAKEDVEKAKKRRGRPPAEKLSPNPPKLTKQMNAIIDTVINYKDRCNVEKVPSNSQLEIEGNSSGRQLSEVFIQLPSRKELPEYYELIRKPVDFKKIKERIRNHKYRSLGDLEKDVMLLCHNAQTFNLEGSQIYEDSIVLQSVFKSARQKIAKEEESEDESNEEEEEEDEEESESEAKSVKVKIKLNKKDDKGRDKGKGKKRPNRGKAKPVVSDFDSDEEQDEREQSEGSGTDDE
T2 sequence (P51532 whole entry): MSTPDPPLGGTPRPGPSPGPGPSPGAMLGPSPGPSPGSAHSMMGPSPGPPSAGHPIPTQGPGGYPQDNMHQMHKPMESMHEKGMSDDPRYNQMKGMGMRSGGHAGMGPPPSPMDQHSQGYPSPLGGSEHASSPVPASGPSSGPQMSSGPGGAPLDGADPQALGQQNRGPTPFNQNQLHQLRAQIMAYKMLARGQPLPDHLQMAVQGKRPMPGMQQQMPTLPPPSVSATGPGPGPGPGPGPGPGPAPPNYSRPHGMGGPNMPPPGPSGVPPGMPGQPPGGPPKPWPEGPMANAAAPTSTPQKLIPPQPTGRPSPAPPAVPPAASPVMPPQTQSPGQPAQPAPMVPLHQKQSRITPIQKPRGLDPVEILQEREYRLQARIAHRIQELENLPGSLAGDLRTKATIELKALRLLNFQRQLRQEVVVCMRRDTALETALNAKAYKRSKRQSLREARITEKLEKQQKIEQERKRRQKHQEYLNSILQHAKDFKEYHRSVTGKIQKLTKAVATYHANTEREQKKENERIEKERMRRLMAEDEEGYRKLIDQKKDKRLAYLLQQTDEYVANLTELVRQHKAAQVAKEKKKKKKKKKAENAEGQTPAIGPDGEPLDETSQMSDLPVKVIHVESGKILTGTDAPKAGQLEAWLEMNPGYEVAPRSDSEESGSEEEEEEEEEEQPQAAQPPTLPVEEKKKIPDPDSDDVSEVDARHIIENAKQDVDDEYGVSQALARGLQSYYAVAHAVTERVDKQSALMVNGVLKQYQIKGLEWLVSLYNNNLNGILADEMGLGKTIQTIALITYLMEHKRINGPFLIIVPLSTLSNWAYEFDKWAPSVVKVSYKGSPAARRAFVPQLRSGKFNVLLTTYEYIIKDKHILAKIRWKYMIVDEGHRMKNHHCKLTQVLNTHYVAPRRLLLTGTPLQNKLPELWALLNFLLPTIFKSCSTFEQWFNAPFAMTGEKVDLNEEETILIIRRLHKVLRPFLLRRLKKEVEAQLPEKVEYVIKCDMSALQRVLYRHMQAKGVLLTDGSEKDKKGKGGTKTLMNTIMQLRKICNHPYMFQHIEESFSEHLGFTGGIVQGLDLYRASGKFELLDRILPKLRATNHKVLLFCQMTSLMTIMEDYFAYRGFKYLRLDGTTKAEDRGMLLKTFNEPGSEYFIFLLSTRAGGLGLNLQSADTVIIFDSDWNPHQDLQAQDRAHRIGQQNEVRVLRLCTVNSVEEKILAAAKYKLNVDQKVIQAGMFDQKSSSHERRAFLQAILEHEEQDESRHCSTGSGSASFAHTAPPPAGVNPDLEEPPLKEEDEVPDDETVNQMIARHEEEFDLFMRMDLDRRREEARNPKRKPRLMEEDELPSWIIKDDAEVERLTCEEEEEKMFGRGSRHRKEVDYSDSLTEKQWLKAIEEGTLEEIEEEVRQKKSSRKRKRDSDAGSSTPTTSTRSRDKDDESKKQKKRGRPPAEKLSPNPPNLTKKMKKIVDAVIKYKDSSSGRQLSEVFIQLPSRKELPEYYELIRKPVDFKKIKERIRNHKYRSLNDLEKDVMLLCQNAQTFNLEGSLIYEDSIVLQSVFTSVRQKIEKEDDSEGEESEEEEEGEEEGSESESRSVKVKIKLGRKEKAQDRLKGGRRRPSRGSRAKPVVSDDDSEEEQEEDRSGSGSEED

Turning to `C[C@H](NC(=O)[C@@H]1C[C@@H](O)CN1C(=O)[C@@H](NC(=O)[C@H]1CCC2(CC1)C[C@H](N1CCC(c3cnc(N4CCN5c6cc(-c7ccccc7O)nnc6NC[C@H]5C4)nc3)CC1)C2)C(C)(C)C)c1ccc(-c2ccnn2C)cc1` (single isomer, unassigned) [I-21], in experiment [1], the maximal degradation (Dmax) – broadly, the largest share of the target that was removed – was above 90% and the DC50 (usually the midpoint of the concentration-degradation curve) lay in the range of 10 to 50 nM. In experiment [2], the Dmax is above 90% and the DC50 was 1 to 10 nM. Moreover, in experiment [3], the Dmax was above 90%, the DC50 was below 1 nM and the “Selectivity in MV411” value is on record as “C (C (10-100 fold))”.

As for `C#Cc1ccc(CNC(=O)[C@@H]2C[C@@H](O)CN2C(=O)[C@@H](NC(=O)c2ccc(N3CCC(N4CCC(N5CCN6c7cc(-c8ccccc8O)nnc7NC[C@H]6C5)CC4)CC3)cn2)C(C)(C)C)cc1` [I-292], in experiment [1], the Dmax is above 90% and the DC50 was below 10 nM. Besides, in experiment [2], the maximal degradation (Dmax) is above 90% and the DC50 lay within 10 to 100 nM. Further, in experiment [3], the Dmax was above 90%, the DC50 is 1 to 10 nM and the “Selectivity in MV411” value was “C (C (10-100 fold))”.

Regarding `C#Cc1ccc(CNC(=O)[C@@H]2C[C@@H](O)CN2C(=O)[C@@H](NC(=O)N2CC3(CC(N4CCC(c5cnc(N6CCc7[nH]c8nnc(-c9ccccc9O)cc8c7[C@@H]6C)nc5)CC4)C3)C2)C(C)(C)C)cc1` [I-228], in experiment [1], the Dmax was above 90% and the DC50 was above 100 nM. In experiment [2], the Dmax is above 90% and the DC50 is above 100 nM. In experiment [3], the maximal degradation (Dmax) lay in the range of 70 to 90%, the DC50 lay in the range of 10 to 100 nM and the “Selectivity in MV411” value is “D (D (<10 fold))”.

Regarding `C#Cc1ccc(CNC(=O)[C@@H]2C[C@@H](O)CN2C(=O)[C@@H](NC(=O)N2CC3(CC(N4CCC(N5CC6(CC(N7CCc8[nH]c9nnc(-c%10ccccc%10O)cc9c8[C@H]7C)C6)C5)CC4)C3)C2)C(C)(C)C)cc1` [I-207], in experiment [1], the Dmax is above 90% and the DC50 is above 100 nM. In experiment [2], the Dmax was below 50% and the half-maximal degradation concentration (DC50) was above 100 nM. In experiment [3], the Dmax is 70 to 90%, the DC50 lay in the range of 1 to 10 nM and the “Selectivity in MV411” value is listed as “B (B (>100-500 fold))”.

Take `Cc1ncsc1-c1ccc(CNC(=O)[C@@H]2C[C@@H](O)CN2C(=O)C(c2cc(OCCCCN3CCC(c4cnc(N5CCc6[nH]c7nnc(-c8ccccc8O)cc7c6[C@H]5C)nc4)CC3)no2)C(C)C)cc1` (stereo partly shown) [I-35]: the greatest degradation seen (Dmax) in experiment [1] is 70 to 90%; in experiment [2] it was 70 to 90%; in experiment [3] it was above 90%. The DC50 in experiment [1] lay in the range of 10 to 50 nM; in experiment [2], 1 to 10 nM; in experiment [3], 1 to 10 nM. For the same compound, the “Selectivity in MV411” value in experiment [3] is on record as “D (D (<10 fold))”.

Consider `Cc1ncsc1-c1ccc(CNC(=O)[C@@H]2C[C@@H](O)CN2C(=O)C(c2cc(N3CC4(CC(N5CCC(c6cnc(N7CCc8[nH]c9nnc(-c%10ccccc%10O)cc9c8[C@H]7C)nc6)CC5)C4)C3)no2)C(C)C)cc1` (single isomer, unassigned) [I-10], for which, in experiment [1], the maximal degradation (Dmax) is above 90% and the DC50 was 10 to 50 nM. Besides, in experiment [2], the Dmax is above 90% and the half-maximal degradation concentration (DC50) fell in the range of 1 to 10 nM. In experiment [3], the Dmax is above 90%, the DC50 is below 1 nM and the “Selectivity in MV411” value is on record as “D (D (<10 fold))”.

For `C#Cc1ccc(CNC(=O)[C@@H]2C[C@@H](O)CN2C(=O)[C@@H](NC(=O)[C@H]2CCC3(CC2)C[C@H](N2CCC(c4cnc(N5CCN6c7cc(-c8ccccc8O)nnc7NC[C@H]6C5)nc4)CC2)C3)C(C)(C)CCO)cc1` (single isomer, unassigned) [I-131], the values for the greatest degradation seen (Dmax) in experiment [1], in experiment [2] and in experiment [3] were above 90%, 50 to 70% and above 90%, respectively. Further, the DC50 in experiment [1] is 10 to 50 nM; in experiment [2], 10 to 100 nM; in experiment [3], below 1 nM. The “Selectivity in MV411” value in experiment [3] was “C (C (10-100 fold))”.

With `C#Cc1ccc(CNC(=O)[C@@H]2C[C@@H](O)CN2C(=O)[C@@H](NC(=O)N2CC3(CC(N4CCC(N5CC6(CC(N7CCN8c9cc(-c%10ccccc%10O)nnc9NC[C@H]8C7)C6)C5)CC4)C3)C2)C(C)(C)C)cc1` [I-224], in experiment [1], the Dmax is above 90% and the 50% degradation concentration (DC50) was in the range of 50 to 100 nM. Also, in experiment [2], the maximal degradation (Dmax) lay within 70 to 90% and the DC50 is 10 to 100 nM. Further, in experiment [3], the Dmax fell in the range of 70 to 90%, the DC50 was in the range of 1 to 10 nM and the “Selectivity in MV411” value is “C (C (10-100 fold))”.

As to `C#Cc1ccc(CNC(=O)[C@@H]2C[C@@H](O)CN2C(=O)[C@@H](NC(=O)N2CCC(CN3CCC(N4CCc5[nH]c6nnc(-c7ccccc7O)cc6c5[C@H]4C)CC3)CC2)C(C)(C)C)cc1` [I-198], the Dmax in experiment [1] is 70 to 90%; in experiment [2], below 50%; in experiment [3], 50 to 70%. Moreover, the DC50 in experiment [1] is above 100 nM; in experiment [2] it was above 100 nM; in experiment [3], 10 to 100 nM. Further, in experiment [3], the “Selectivity in MV411” value was “C (C (10-100 fold))”.

Regarding `C#Cc1ccc(CNC(=O)[C@@H]2C[C@@H](O)CN2C(=O)[C@@H](NC(=O)N2CCC(N3CCC(N4CC5(CC(N6CCc7[nH]c8nnc(-c9ccccc9O)cc8c7[C@H]6C)C5)C4)CC3)CC2)C(C)(C)C)cc1` [I-208], in experiment [1], the Dmax fell in the range of 70 to 90% and the half-maximal degradation concentration (DC50) is above 100 nM. In experiment [2], the greatest degradation seen (Dmax) was below 50% and the DC50 is above 100 nM. In addition, in experiment [3], the greatest degradation seen (Dmax) is below 50%, the 50% degradation concentration (DC50) was above 100 nM and the “Selectivity in MV411” value is reported as “C (C (10-100 fold))”.

Regarding `C#Cc1ccc(CNC(=O)[C@@H]2C[C@@H](O)CN2C(=O)[C@@H](NC(=O)N2CCC(N3CC4(CC(N5CC6(CC(N7CCc8[nH]c9nnc(-c%10ccccc%10O)cc9c8[C@H]7C)C6)C5)C4)C3)CC2)C(C)(C)C)cc1` [I-209], in experiment [1], the Dmax lay in the range of 70 to 90% and the DC50 is above 100 nM. For the same compound, in experiment [2], the Dmax was below 50% and the DC50 is above 100 nM. Moreover, in experiment [3], the maximal degradation (Dmax) is below 50%, the half-maximal degradation concentration (DC50) was above 100 nM and the “Selectivity in MV411” value is listed as “C (C (10-100 fold))”.

For `Cc1ncsc1-c1ccc(CNC(=O)[C@@H]2C[C@@H](O)CN2C(=O)[C@@H](NC(=O)[C@H]2CC3(C2)C[C@H](N2CCC(c4ccnc(N5CCN6c7cc(-c8ccccc8O)nnc7NC[C@H]6C5)n4)CC2)C3)C(C)(C)C)cc1` (single isomer, unassigned) [I-5], in experiment [1], the maximal degradation (Dmax) was above 90% and the DC50 is 10 to 50 nM. Besides, in experiment [2], the Dmax is below 50% and the half-maximal degradation concentration (DC50) was above 100 nM. Besides, in experiment [3], the Dmax is above 90%, the DC50 is 1 to 10 nM and the “Selectivity in MV411” value was “A (A (>500 fold))”.

`C#Cc1ccc(CNC(=O)[C@@H]2C[C@@H](O)CN2C(=O)[C@@H](NC(=O)CN2CC3(CC(N4CCC(N5CCC(N6CCN7c8cc(-c9ccccc9O)nnc8NC[C@H]7C6)CC5)CC4)C3)C2)C(C)(C)C)cc1` [I-214, (2S,4R)—N-(4-ethynylbenzyl)-4-hydroxy-1-((S)-2-(2-(6-(4-((S)-2-(2-hydroxyphenyl)-6a,7,9,10-tetrahydro-5H-pyrazino[1′,2′:4,5]pyrazino[2,3-c]pyridazin-8(6H)-yl)-[1,4′-bipiperidin]-1′-yl)-2-azaspiro[3.3]heptan-2-yl)acetamido)-3,3-dimethylbutanoyl)pyrrolidine-2-carboxamide]: the greatest degradation seen (Dmax) in experiment [1] is above 90%; in experiment [2] it was below 50%; in experiment [3], 70 to 90%. Moreover, the DC50 in experiment [1] is above 100 nM; in experiment [2], above 100 nM; in experiment [3], 10 to 100 nM. In experiment [3], the “Selectivity in MV411” value is listed as “B (B (>100-500 fold))”.

In the case of `C#Cc1ccc(CNC(=O)[C@@H]2C[C@@H](O)CN2C(=O)[C@@H](NC(=O)[C@H]2CC[C@H](CN3CCC(c4cnc(N5CCN6c7cc(-c8ccccc8O)nnc7NC[C@H]6C5)nc4)CC3)CC2)C(C)(C)C)cc1` [I-294], in experiment [1], the maximal degradation (Dmax) is above 90% and the DC50 was below 10 nM. Also, in experiment [2], the Dmax fell in the range of 70 to 90% and the half-maximal degradation concentration (DC50) lay in the range of 10 to 100 nM. In experiment [3], the Dmax was above 90%, the DC50 fell in the range of 1 to 10 nM and the “Selectivity in MV411” value is reported as “C (C (10-100 fold))”.

For `C#Cc1ccc(CNC(=O)[C@@H]2C[C@@H](O)CN2C(=O)[C@@H](NC(=O)[C@H]2CCC3(CC2)C[C@H](N2CCC(c4cnc(N5CCN6c7cc(-c8ccccc8O)nnc7NC[C@H]6C5)nc4)CC2)C3)C(C)(C)C)c(OCCCN(C)C)c1` (single isomer, unassigned) [I-129], the Dmax in experiment [1], in experiment [2] and in experiment [3] was above 90% throughout. Further, the half-maximal degradation concentration (DC50) in experiment [1] fell in the range of 10 to 50 nM; in experiment [2], 10 to 100 nM; in experiment [3] it was 1 to 10 nM. Besides, the “Selectivity in MV411” value in experiment [3] was “C (C (10-100 fold))”.

`C#Cc1ccc(CNC(=O)[C@@H]2C[C@@H](O)CN2C(=O)[C@@H](NC(=O)c2ccc(N3CCC(N4CCC(N5CCN6c7cc(-c8ccccc8O)nnc7NC[C@H]6C5)CC4)CC3)cc2)C(C)(C)C)cc1` [I-277]: in experiment [1], the greatest degradation seen (Dmax) was above 90% and the 50% degradation concentration (DC50) is below 10 nM. In addition, in experiment [2], the Dmax lay within 70 to 90% and the DC50 is 10 to 100 nM. In experiment [3], the Dmax is above 90%, the 50% degradation concentration (DC50) fell in the range of 1 to 10 nM and the “Selectivity in MV411” value was “C (C (10-100 fold))”.
